Test results reported in the supplement of paper PMC4862054.

How the values were obtained:
Conditions in all cases: incubation time: 72 h
BT-474 [1] = test: normalised response (% of control), CellTox Green; higher = less cell death (100 = DMSO, 0 = benzethonium chloride kill control)
Summary of the method: (§1)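 The table gives the normalised signal for a single concentration in each entry. Breast cancer cell lines were seeded (20 µl suspension) into 384-well plates holding compound at 5 concentrations in 10-fold steps over a compound-specific 10,000-fold range and incubated 72 h, then read for CellTox Green fluorescence (485/520 nm) and CellTiter-Glo luminescence. Normalisation on each plate used 0.1 % DMSO (100) and a positive kill control (0).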

BT-549 [2] = test: as above
Summary of the method: as §1

CAL-120 [3] = test: as above
Summary of the method: as §1

CAL-148 [4] = test: as above
Summary of the method: as §1

CAL-51 [5] = test: as above
Summary of the method: as §1

CAL-85-1 [6] = test: as above
Summary of the method: as §1

DU-4475 [7] = test: as above
Summary of the method: as §1

HCC1143 [8] = test: as above
Summary of the method: as §1

HCC1599 [9] = test: as above
Summary of the method: as §1

HDQ-P1 [10] = test: as above
Summary of the method: as §1

MCF-10A [11] = test: as above
Summary of the method: as §1

MDA-MB-231 [12] = test: as above
Summary of the method: as §1

MDA-MB-436 [13] = test: as above
Summary of the method: as §1

MDA-MB-453 [14] = test: as above
Summary of the method: as §1

MDA-MB-468 [15] = test: as above
Summary of the method: as §1

MFM-223 [16] = test: as above
Summary of the method: as §1

BT-474 [17] = test: normalised response (% of control), CellTiter-Glo; higher = more viable cells (100 = DMSO, 0 = benzethonium chloride kill control)
Protocol: (§2)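 DSRT, 72 h incubation, CellTox Green / CellTiter-Glo readout. Signal is normalised to DMSO and benzethonium chloride controls. Value is the normalised response at dose 3.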

BT-549 [18] = test: as above
Protocol: as §2

CAL-120 [19] = test: as above
Protocol: as §2

CAL-148 [20] = test: as above
Protocol: as §2

CAL-51 [21] = test: as above
Protocol: as §2

CAL-85-1 [22] = test: as above
Protocol: as §2

DU-4475 [23] = test: as above
Protocol: as §2

HCC1143 [24] = test: as above
Protocol: as §2

HCC1599 [25] = test: as above
Protocol: as §2

HCC1937 [26] = test: as above
Protocol: as §2

HDQ-P1 [27] = test: as above
Protocol: as §2

Hs578T [28] = test: as above
Protocol: as §2

MCF-10A [29] = test: as above
Protocol: as §2

MDA-MB-231 [30] = test: as above
Protocol: as §2

MDA-MB-436 [31] = test: as above
Protocol: as §2

MDA-MB-453 [32] = test: as above
Protocol: as §2

MDA-MB-468 [33] = test: as above
Protocol: as §2

MFM-223 [34] = test: as above
Protocol: as §2

SK-BR-3 = test: as above
Protocol: as §2

HCC1937 [35] = test: normalised response (% of control), CellTox Green; higher = less cell death (100 = DMSO, 0 = benzethonium chloride kill control)
Summary of the method: as §1

Hs578T [36] = test: as above
Summary of the method: as §1

Compound: CCc1cncnc1N1CCN(Cc2nc3ccc(C(F)(F)F)cc3[nH]2)CC1 (100 nM)
- normalised response (BT-474 [1]): 97.9%
- normalised response (BT-549 [2]): 83.3%
- normalised response (CAL-120 [3]): 96%
- normalised response (CAL-148 [4]): 108%
- normalised response (CAL-51 [5]): 86.3%
- normalised response (CAL-85-1 [6]): 99.3%
- normalised response (DU-4475 [7]): 101%
- normalised response (HCC1143 [8]): 118%
- normalised response (HCC1599 [9]): 99.1%
- normalised response (HDQ-P1 [10]): 96%
- normalised response (MCF-10A [11]): 86.4%
- normalised response (MDA-MB-231 [12]): 105%
- normalised response (MDA-MB-436 [13]): 99.8%
- normalised response (MDA-MB-453 [14]): 87.5%
- normalised response (MDA-MB-468 [15]): 108%
- normalised response (MFM-223 [16]): 106%
- normalised response (BT-474 [17]): 105%
- normalised response (BT-549 [18]): 92.9%
- normalised response (CAL-120 [19]): 109%
- normalised response (CAL-148 [20]): 116%
- normalised response (CAL-51 [21]): 88.2%
- normalised response (CAL-85-1 [22]): 95.8%
- normalised response (DU-4475 [23]): 106%
- normalised response (HCC1143 [24]): 107%
- normalised response (HCC1599 [25]): 99.9%
- normalised response (HCC1937 [26]): 98.6%
- normalised response (HDQ-P1 [27]): 97.7%
- normalised response (Hs578T [28]): 109%
- normalised response (MCF-10A [29]): 108%
- normalised response (MDA-MB-231 [30]): 110%
- normalised response (MDA-MB-436 [31]): 108%
- normalised response (MDA-MB-453 [32]): 106%
- normalised response (MDA-MB-468 [33]): 106%
- normalised response (MFM-223 [34]): 110%
- normalised response (SK-BR-3): 107%

Compound: C[C@H]1C[C@@H]2[C@H]([C@@H](O)C[C@@]3(C)[C@H]2CC[C@]3(O)C(=O)CO)[C@@]2(C)C=CC(=O)C=C12 [Methylprednisolone] (100 nM)
- normalised response (BT-474 [1]): 98.9%
- normalised response (BT-549 [2]): 103%
- normalised response (CAL-120 [3]): 103%
- normalised response (CAL-148 [4]): 107%
- normalised response (CAL-51 [5]): 111%
- normalised response (CAL-85-1 [6]): 102%
- normalised response (DU-4475 [7]): 102%
- normalised response (HCC1143 [8]): 90.4%
- normalised response (HCC1599 [9]): 110%
- normalised response (HCC1937 [35]): 115%
- normalised response (Hs578T [36]): 89%
- normalised response (MCF-10A [11]): 101%
- normalised response (MDA-MB-231 [12]): 140%
- normalised response (MDA-MB-436 [13]): 89.9%
- normalised response (MDA-MB-453 [14]): 76.2%
- normalised response (MDA-MB-468 [15]): 169%
- normalised response (MFM-223 [16]): 78.2%
- normalised response (BT-474 [17]): 152%
- normalised response (BT-549 [18]): 101%
- normalised response (CAL-120 [19]): 76.9%
- normalised response (CAL-148 [20]): 109%
- normalised response (CAL-51 [21]): 86.4%
- normalised response (CAL-85-1 [22]): 115%
- normalised response (DU-4475 [23]): 108%
- normalised response (HCC1143 [24]): 108%
- normalised response (HCC1599 [25]): 97.9%
- normalised response (HCC1937 [26]): 98.3%
- normalised response (HDQ-P1 [27]): 90.5%
- normalised response (Hs578T [28]): 107%
- normalised response (MCF-10A [29]): 106%
- normalised response (MDA-MB-231 [30]): 156%
- normalised response (MDA-MB-436 [31]): 104%
- normalised response (MDA-MB-453 [32]): 99.9%
- normalised response (MDA-MB-468 [33]): 111%
- normalised response (MFM-223 [34]): 109%
- normalised response (SK-BR-3): 104%

Compound: O=C(O)C(=O)O.[NH-][C@@H]1CCCC[C@H]1[NH-].[Pt+2] [Oxaliplatin] (100 nM)
- normalised response (BT-474 [1]): 93%
- normalised response (BT-549 [2]): 110%
- normalised response (CAL-120 [3]): 100%
- normalised response (CAL-148 [4]): 61.1%
- normalised response (CAL-51 [5]): 84.7%
- normalised response (CAL-85-1 [6]): 93.8%
- normalised response (DU-4475 [7]): 96.8%
- normalised response (HCC1143 [8]): 89.3%
- normalised response (HCC1599 [9]): 94.2%
- normalised response (HCC1937 [35]): 79.4%
- normalised response (HDQ-P1 [10]): 110%
- normalised response (MCF-10A [11]): 70%
- normalised response (MDA-MB-231 [12]): 89.6%
- normalised response (MDA-MB-453 [14]): 97.2%
- normalised response (MDA-MB-468 [15]): 110%
- normalised response (MFM-223 [16]): 76.6%
- normalised response (BT-474 [17]): 99%
- normalised response (BT-549 [18]): 108%
- normalised response (CAL-120 [19]): 103%
- normalised response (CAL-148 [20]): 85.6%
- normalised response (CAL-51 [21]): 77%
- normalised response (CAL-85-1 [22]): 96.9%
- normalised response (DU-4475 [23]): 92.5%
- normalised response (HCC1143 [24]): 99%
- normalised response (HCC1599 [25]): 93%
- normalised response (HCC1937 [26]): 93.1%
- normalised response (HDQ-P1 [27]): 104%
- normalised response (Hs578T [28]): 97.9%
- normalised response (MCF-10A [29]): 97.5%
- normalised response (MDA-MB-231 [30]): 97.2%
- normalised response (MDA-MB-436 [31]): 103%
- normalised response (MDA-MB-453 [32]): 87.5%
- normalised response (MDA-MB-468 [33]): 89.3%
- normalised response (MFM-223 [34]): 94.3%
- normalised response (SK-BR-3): 84.8%

Compound: CC[C@H](C)C(=O)O[C@H]1C[C@H](O)C=C2C=C[C@H](C)[C@H](CC[C@@H](O)C[C@@H](O)CC(=O)O)[C@H]21 [Pravastatin] (100 nM)
- normalised response (BT-474 [1]): 99.2%
- normalised response (BT-549 [2]): 103%
- normalised response (CAL-120 [3]): 97.2%
- normalised response (CAL-148 [4]): 88.8%
- normalised response (CAL-51 [5]): 73.3%
- normalised response (CAL-85-1 [6]): 97.9%
- normalised response (DU-4475 [7]): 101%
- normalised response (HCC1143 [8]): 79.9%
- normalised response (HCC1599 [9]): 96.2%
- normalised response (HCC1937 [35]): 95.9%
- normalised response (HDQ-P1 [10]): 100%
- normalised response (MCF-10A [11]): 99%
- normalised response (MDA-MB-231 [12]): 102%
- normalised response (MDA-MB-436 [13]): -74.8%
- normalised response (MDA-MB-453 [14]): 98.4%
- normalised response (MDA-MB-468 [15]): 107%
- normalised response (MFM-223 [16]): 98.2%
- normalised response (BT-474 [17]): 99.2%
- normalised response (BT-549 [18]): 101%
- normalised response (CAL-120 [19]): 101%
- normalised response (CAL-148 [20]): 86.3%
- normalised response (CAL-51 [21]): 63.4%
- normalised response (CAL-85-1 [22]): 99%
- normalised response (DU-4475 [23]): 95.7%
- normalised response (HCC1143 [24]): 101%
- normalised response (HCC1599 [25]): 88.7%
- normalised response (HCC1937 [26]): 93.7%
- normalised response (HDQ-P1 [27]): 98%
- normalised response (Hs578T [28]): 93.2%
- normalised response (MCF-10A [29]): 97.4%
- normalised response (MDA-MB-231 [30]): 97.8%
- normalised response (MDA-MB-436 [31]): 13.5%
- normalised response (MDA-MB-453 [32]): 85.9%
- normalised response (MDA-MB-468 [33]): 97.7%
- normalised response (MFM-223 [34]): 88.8%
- normalised response (SK-BR-3): 93.6%
